In one assay the test system is LNCaP cells. Briefly: Flow cytometry of HLA-E / PD-L1 surface expression on LNCaP. In kind it is cell-based. As to conditions: 48 h; for HLA-E surface expression / PD-L1 expression: Example 2, LNCaP; for HLA-E surface expression, mean fluorescence intensity (MFI): LNCaP, enza 15 μM, daro 20 μM. Here is the method:
The effect of ARi on the NKG2A ligand, HLA-E, was investigated by flow cytometry on PCa cells treated with enza and daro.
PCa cells were plated at a density of 3×10^5 cells per well of a 6-well plate and adhered overnight. […] After treatment, cells were trypsinized, stained, and incubated (Cell Staining Buffer SouthernBiotech #0225-01S) with the corresponding antibody for 45-60 min at 4° C. Viability dye was added with each run. NK-92 cells and patient-derived cells were stained similarly. Markers used for experiments included: Thermofisher HLA-E Monoclonal Antibody (3D12HLA-E), Alexa Fluor™ 488, eBioscience™, CD274 (PD-L1, B7-H1) Monoclonal Antibody (MIH1), eFluor™ 450, eBioscience™, Cell Signaling PD-1 (D4W2J) XPR Rabbit mAb, SYTOX™ Orange Dead Cell Stain, for flow cytometry, BioLegend APC anti-human CD159a (NKG2A) Antibody #375108, BioLegend APC anti-human CD69 Antibody #310909, BioLegend Alexa Fluor® 647 anti-human CD137 (4-1BB) [4B4-1] #309823. For staining of the patient-derived PBMCs and subsequent NK cell characterization, the following antibodies were used: BioLegend Anti-Perforin Mouse Monoclonal Antibody (PerCP Cy5.50, clone: dG9) #308113, BioLegend Anti-Granzyme B Mouse Monoclonal Antibody (FITC, clone: GB11) #515403, BioLegend Anti-CD56 Mouse Monoclonal Antibody (Alexa Fluor® 700, clone: 5.1H1) #362521, and BioLegend (PE anti-human CD45 Antibody) #304008.
The effect of androgen pathway inhibitors in the expression of HLA-E, a negative and key negative modulator of NK cell function, was also performed using Flow Cytometry. PD-L1 expression levels were also measured. In advance, The NK cell immune checkpoint inhibitor monalizumab (targeting NKG2A and its ligand, HLA-E) was also combined with ARi.

The subject of assay [1] is PC tumors (PC3, 22Rv1 xenograft). Briefly: NK cell infiltration in subcutaneous PC tumors of treated mice. The format is in vivo, NCr Nude mice. As to conditions: oral, Daro 50 mg/kg/bid, Enza 30 mg/kg/bid, 4 weeks. Here is the method: We conducted cell viability assays to investigate the effect of Enza and Daro on PC cells (LNCap, 22Rv1 [ARv7 mutation], DU145, PC3 [AR-]) and NK-92 cells. We performed co-culture experiments with PC and NK cells in a 1:1 ratio and analyzed immune cell-mediated tumor cell killing (ImageXpress Confocal HT). Cytokine profiling (Luminex 200) of culture supernatants was performed following treatment with ARi−/+ and anti-IFN-γ antibodies. In vivo studies were performed in NCr Nude mice harboring subcutaneous PC tumors treated orally with Daro (50 mg/kg/bid) and Enza (30 mg/kg/bid) for 4 weeks.
In vivo studies were performed in NCr Nude mice harboring subcutaneous PC tumors treated orally with Daro (50 mg/kg/bid) and Enza (30 mg/kg/bid) for 4 weeks.

The next assay has as its system NK-92 cells. The experiment in a line: Cytokine secretion of NK-92 monoculture (Luminex 200). In kind it is cell-based. The conditions noted are these: for NK-92 secretion of T cell chemokine CCL5: FIG. 13A (A6); for NK-92 cell secretion of IFN-γ / NK-92 cell secretion of IL-10 / NK-92 cell secretion of granzyme B: monoculture, DHT for 72 h before treatment, supernatant. Here is the method: The secretion profile was assessed in monoculture conditions without the PCa cell lines.
The medium was collected 24 hours after treatment and stored at −80° C. until readout. Samples were shipped to Brown University to run them in biological duplicate on a Luminex 200 Instrument (R&D LX200-XPON-RUO), which captures cytokines on magnetic antibody-coated beads and measures cytokine levels using a system based on the principles of flow cytometry (see https:/www.luminexcorp.com/luminex-100200/#overviewfor more information). A custom […] panel was split into 34-plex and 18-plex assays (R&D LXSAHM) and was run on the Luminex 200 instrument according to the manufacturer's protocol.

Another assay deals with 22Rv1. The experiment in a line: Co-culture of 22Rv1 with NK-92 cells, immune-mediated tumor cell killing. In kind it is cell-based. Here is the method: They were co-treated with enzalutamide ([…]) or darolutamide (20 μM) for 48 h. Doses of AR inhibitors (ARi) used in the co-culture experiments were based on previous IC50 experiments. […] The immune-mediated effect of NK-92 on the PCa cell lines in the presence of enzalutamide (immune enhancement death) was normalized to baseline immune and tumor cell killing in each condition [(tumor cells+immune cells)-tumor baseline death=baseline immune death]. […] Cytokine analysis was performed to investigate the activation phenotype of NK cells when treated with ARi.
Prostate cancer cell lines were dyed with the blue CMAC live-cell dye (Thermo Fisher Scientific #C2110, per manufacturer protocol). Blue-fluorescent cancer cells were plated at a density of 10,000 cells per well of a 48-well plate. NK-92 cells were dyed with green CMFDA (Cayman Chemical Company #19583, per manufacturer protocol). Green-fluorescent NK-92 cells were added to the blue-fluorescent cancer cells at a 1:1 ratio. Enzalutamide (10 μM), darolutamide (20 μM), and 1 μM ethidium homodimer (EthD-1) were added at the same time as the NK cells. After 24 hours of co-culture, images of live cancer cells, live NK cells, and dead cells were taken using a fluorescent microscope. The co-culture experiments were run with internal control conditions and as a single treatment. Normalization was performed after analysis to take baseline death conditions into each experiment run. […] Cell adhered over 24 h, and when patient-derived NK cells were added, a control well was trypsinized, and cells resuspended and counted to adjust a 1:1 ratio before treatment addition. […]
Live cancer cells, NK cells, and dead cells were quantified using FIJI (Fiji Is Just ImageJ) software for images derived from fluorescent co-culture images. Images from the ImageXpress system were quantified using MetaXpress cytoplasmic/nuclear staining software. The percent of dead tumor cells in each well was quantified, and this percentage was normalized by subtracting baseline death from cancer cell-only wells, NK cell-only wells, or both.

For `CC(O)c1cc(C(=O)N[C@@H](C)Cn2ccc(-c3ccc(C#N)c(Cl)c3)n2)n[nH]1` (stereo partly drawn) [darolutamide], in the assay with LNCaP cells, the HLA-E surface expression was 0.8%; the PD-L1 expression result is “increase”; the “HLA-E surface expression, mean fluorescence intensity (MFI)” value is 39.47±3.39×10^3. Besides, the “NK cell infiltration in the tumor microenvironment” value in assay [1] is recorded as “increased”. Besides, in the assay on NK-92 cells, the “NK-92 secretion of T cell chemokine CCL5” value is “reduces”, the “NK-92 cell secretion of IFN-γ” value came to 45.6 pg/mL, the “NK-92 cell secretion of IL-10” value turned out to be 15.24 pg/mL and the “NK-92 cell secretion of granzyme B” value was 1599 pg/mL.

For the compound `CNC(=O)c1ccc(N2C(=S)N(c3ccc(C#N)c(C(F)(F)F)c3)C(=O)C2(C)C)cc1F` [enzalutamide], the “cell death rate (NK cell-mediated tumor killing)” value in the assay with 22Rv1 (22Rv1 + NK-92 1:1, 24 hours) is 52.67±8.96%. In the assay on 22Rv1 (22Rv1 + NK-92 1:1, enzalutamide 10 μM, FIG. 15B), the “NK cell killing of PCa cells (immune enhancement)” value was found to be 34.84%. For the same compound, in the assay on LNCaP cells, the HLA-E surface expression was found to be 1.1%; the PD-L1 expression result was “increase”; the “HLA-E surface expression, mean fluorescence intensity (MFI)” value is 37.38±1.7×10^3. In addition, the “NK cell infiltration in the tumor microenvironment” value in assay [1] is recorded as “increased”. Further, in the assay with NK-92 cells, the “NK-92 secretion of T cell chemokine CCL5” value is “reduces”, the “NK-92 cell secretion of IFN-γ” value was 48.88 pg/mL, the “NK-92 cell secretion of IL-10” value was 16.6 pg/mL and the “NK-92 cell secretion of granzyme B” value came to 1027 pg/mL.

The record behind these values is US20240309090A1, “MODULATION OF ANDROGEN SIGNALING TO INNATE IMMUNE KILLING OF PROSTATE CANCER” (Brown University, priority 2023, published 2024).
